The test system of experiment [1] is Panel NCI-60 (60 carcinoma cell lines). As to the kind of experiment: Antiproliferative activity against NCI60 cell line. Type of experiment: functional, Homo sapiens.
Experiment [2] deals with Mus musculus. Put plainly: Activity against NCI60 cell line xenograft in nude mouse by HF assay. Type of experiment: functional.

Usually pGI50 stands for −log10 of the GI50, conventionally taken in molar units. Lower therefore signals a large GI50.

Each structure is given as a SMILES string. Active and inactive are the calls of the source. The calls are words filed in the database; no cut-off is given here.

On to `O=C(OC12CC3CC(CC(C3)C1)C2)c1ccc(NCc2cc(O)ccc2O)cc1`, for which, in experiment [1], the pGI50 was found to be 5.44. The same compound displayed an Activity in experiment [2] of 10.83.

In the case of `COc1cccc2c1C(=O)c1c(O)c3c(c(O)c1C2=O)CC(O)(C(=O)CO)CC3OC1CC(N)C(O)C(C)O1` (stereo unspecified), the negative logarithm of the GI50 (pGI50) in experiment [1] stood at 6.53. Moreover, in experiment [2], the Activity is on record as 20.67.

`CCC1(O)C(=O)OCc2c1cc1n(c2=O)Cc2cc3ccccc3nc2-1` (stereo unspecified) registered a pGI50 in experiment [1] of 5.99. This compound also came in with an Activity in experiment [2] of 13.67.

In experiment [1], `N/C(S)=N/N=C/c1ccc(O)cn1` displayed a pGI50 of 5.92. For the same compound, the Activity in experiment [2] worked out at 15.

As for `CCCCCCC(O)C(O)CCC(O)C1CCC(CCCCC(O)CC2=CC(C)OC2=O)O1` (stereo unspecified) [ACETOGENINS], the pGI50 in experiment [1] is 5.53. Also, the result in experiment [2] was inactive.

Turning to `COc1cc2c(c(OC)c1OC)-c1ccc(OC)c(=O)cc1[C@@H](NC(C)=O)CC2` [COLCHICINE], in experiment [1], the pGI50 is 5.8. Also, the Activity in experiment [2] turned out to be 19.6.

In experiment [1], `Nc1ccn([C@@H]2O[C@H](CO)[C@@H](O)[C@@H]2O)c(=O)n1` [CYTARABINE] gave a pGI50 of 5. In experiment [2], this compound registered an Activity of 11.

In the case of `CN(Cc1cnc2nc(N)nc(N)c2n1)c1ccc(C(=O)N[C@@H](CCC(=O)O)C(=O)O)cc1` [METHOTREXATE], the pGI50 in experiment [1] is recorded as 5.55. The compound also came in with an Activity in experiment [2] of 16.8.

Source of the values: ChEMBL document CHEMBL1138988, “Assessment of in vitro and in vivo activities in the National Cancer Institute's anticancer screen with respect to chemical structure, target specificity, and mechanism of action” (2006).
